Marks after values point to notes of the source that are not given here. No end group written: not given here.
Experiments:
[1] = target: angiotensin I-converting enzyme (ACE) (Homo sapiens, UniProt P12821); assay: ACE inhibitory activity assay (HHL substrate, hippuric acid absorbance at 228 nm); format: biochemical; conditions: for inhibition at 1000 µg/mL: synthetic peptides at 1 mg/ml
Protocol: ACE inhibitory activity assay was carried out according to the methods of Cushman and Cheung (1971) and Wu et al. (2002) with some modifications. A reaction mixture containing 50 µl of hydrolysate or peptides, 150 µl of 8.3 mM Hippuryl-L-histidyl-L-leucine (HHL), and 50 µl of ACE (25 mU/ml) was incubated at 37° C. for 1 h. Subsequently, 250 µl of 1 M HCl was added to terminate the reaction. The released hippuric acid (HA) was extracted by adding 2.5 ml ethyl acetate, and the mixture was mixed with a vortex for 1 min and left at room temperature for 1 h. Then, 2 ml of the upper layer was transferred into beaker and dried at 80° C. to remove ethyl acetate. Finally, 1 ml of deionized water was added to dissolve the HA. Absorbance was measured at 228 nm. The percentage of ACE inhibition was calculated as follows: […]
where A is the absorbance at 228 nm of a reaction containing ACE without hydrolysate; B is the absorbance at 228 nm of a reaction containing ACE previously inactivated by adding HCl in the absence of hydrolysate; C is the absorbance at 228 nm of a reaction in the presence of ACE and hydrolysate; and D is the absorbance at 228 nm of a reaction containing ACE previously inactivated by adding HCl in the presence of hydrolysate. The IC50 was defined as the concentration of inhibitor required to inhibit 50% of the ACE activity. Specific inhibitory activity was calculated as ACE inhibition (%) divided by total peptide content (mg).

ACE = ACE (Homo sapiens, UniProt P12821); conditions: Wu et al. (2008); Balti et al. (2010); read-out: IC50 (ACE inhibition); cited from earlier work
Sequence of ACE (P12821 30-1306, species assumed): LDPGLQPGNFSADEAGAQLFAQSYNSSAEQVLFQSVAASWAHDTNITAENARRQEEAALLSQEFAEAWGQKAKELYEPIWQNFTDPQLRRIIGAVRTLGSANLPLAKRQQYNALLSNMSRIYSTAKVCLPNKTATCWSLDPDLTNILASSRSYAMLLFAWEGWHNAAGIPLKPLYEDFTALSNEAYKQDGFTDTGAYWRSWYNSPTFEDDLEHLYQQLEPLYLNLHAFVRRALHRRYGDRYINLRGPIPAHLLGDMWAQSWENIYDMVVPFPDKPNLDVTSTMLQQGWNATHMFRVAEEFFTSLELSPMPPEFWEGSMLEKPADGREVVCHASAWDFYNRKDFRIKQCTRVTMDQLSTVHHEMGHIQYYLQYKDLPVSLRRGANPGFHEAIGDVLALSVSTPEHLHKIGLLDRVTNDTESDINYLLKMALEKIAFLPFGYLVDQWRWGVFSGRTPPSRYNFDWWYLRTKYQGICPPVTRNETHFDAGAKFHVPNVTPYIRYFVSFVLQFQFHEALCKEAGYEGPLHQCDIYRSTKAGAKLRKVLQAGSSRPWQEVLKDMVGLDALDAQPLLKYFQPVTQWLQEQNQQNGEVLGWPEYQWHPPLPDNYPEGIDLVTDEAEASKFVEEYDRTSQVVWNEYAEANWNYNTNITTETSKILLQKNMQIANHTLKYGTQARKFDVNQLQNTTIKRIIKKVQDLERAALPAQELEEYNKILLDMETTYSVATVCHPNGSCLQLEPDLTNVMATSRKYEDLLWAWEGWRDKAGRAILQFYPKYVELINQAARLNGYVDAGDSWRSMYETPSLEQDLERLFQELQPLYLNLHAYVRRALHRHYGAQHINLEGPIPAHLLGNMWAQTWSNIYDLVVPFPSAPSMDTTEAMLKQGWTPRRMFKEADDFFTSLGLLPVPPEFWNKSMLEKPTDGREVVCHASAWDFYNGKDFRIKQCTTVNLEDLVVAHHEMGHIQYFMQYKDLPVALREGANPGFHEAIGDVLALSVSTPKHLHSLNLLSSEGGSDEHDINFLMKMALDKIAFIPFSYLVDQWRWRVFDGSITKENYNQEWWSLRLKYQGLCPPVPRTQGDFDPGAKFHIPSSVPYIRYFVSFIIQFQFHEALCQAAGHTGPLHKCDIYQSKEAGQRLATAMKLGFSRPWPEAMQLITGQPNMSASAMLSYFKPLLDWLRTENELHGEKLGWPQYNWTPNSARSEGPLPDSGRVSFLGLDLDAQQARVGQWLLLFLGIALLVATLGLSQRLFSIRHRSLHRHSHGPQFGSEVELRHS

[2] = test system: GI enzymes (pepsin and pancreatin); assay: In vitro gastrointestinal (GI) digestion of synthetic peptides, with ACE inhibitory activity and α-amino group content before and after; format: in vitro ADME; conditions: pepsin pH 2.0, 37° C., 1 h, then pancreatin pH 7.5, 37° C., 2 h (FIG. 6)
Protocol: It is necessary for ACE inhibitory peptides to retain its activity in GI tract so that it can be absorbed into the bloodstream, where the peptide inhibitors can show their hypotensive effect. In vitro gastrointestinal digestion provides an easy process to imitate antihypertensive activity of peptides under oral administration. […] In vitro GI digestion was simulated according to the method of Zhu et al. (2008) with some modifications. One milligram of each sample was dissolved in 0.5 ml of 0.1 M KCl-HCl, and the pH was adjusted to 2.0 with 6 M HCl. Pepsin (1% enzyme/substrate, w/w) was added, and the mixture was incubated in a shaking water bath at 37° C. for 1 h, and the pH was then adjusted to pH 7.5. […] ACE inhibitory activity and α-amino groups content of the peptides before and after in vitro GI digestion were measured. […]
ACE inhibitory activity assay was carried out according to the methods of Cushman and Cheung (1971) and Wu et al. (2002) with some modifications. […] Absorbance was measured at 228 nm. The percentage of ACE inhibition was calculated as follows: […]
Content of α-amino groups was performed according to Adler-Nissen (1979). […] The mixture was left at room temperature for 30 min before an absorbance at 420 nm was monitored. […] The content of α-amino groups was expressed as leucine equivalents.

[3] = synthesized in silico GI digestion products of VR9

Sequence of angiotensin I-converting enzyme (ACE) (P12821 30-1306, species assumed): as above

Row | Substance | IC50 (ACE) [nM] | IC50 [1] [nM] | inhibition at 1000 µg/mL [1] [%] | other results
1 | INCR | – | – | – | ACE inhibitory activity (%) At 1 µg/ml ([1]; 1 µg/ml, synthesized in silico GI digestion products of VR9): 29.10 ± 1.06^c %; ACE inhibitory activity (%) At 1 mg/ml [1, 3]: 100.79 ± 0.71^c %
2 | MAW | 16300 | – | – | –
3 | NLLPHR [NLLPHR] | – | 1240 | 94.9 ± 0.97 | Decrease of ACE inhibitory activity after GI digestion [2]: approximately 30%
4 | VIIF | 8700 | – | – | –
5 | VIY [in silico GI digestion product of VR9] | – | – | – | ACE inhibitory activity (%) At 1 mg/ml [1, 3]: 18.51 ± 1.12^a %
6 | VIYSRINCR [VIYSRINCR] | – | 240 | 97.02 ± 0.46 | Decrease of ACE inhibitory activity after GI digestion [2]: ~14%
7 | VSVVQYSR [VSVVQYSR] | – | 950 | 94.15 ± 0.2 | –
8 | VYAP | 6100 | – | – | –
